We go through 3 compounds from US20230218589A1, “COMPOUND FOR PREVENTION OR TREATMENT OF A SKIN CANCER OR SKIN PRECANCER” (UNIQUEST PTY LTD, priority 2020, published 2023).

For one test, the system named is human T cells. The experiment in a line: Human T cell proliferation assay (PBMCs, anti-CD3, CellTiter-Glo). Type of test: cell-based. Particulars: 50 ng/mL cyclosporine A, anti-CD3, 5 days. On the procedure:
Cyclosporine A 1 mg/mL stock (CsA—Sigma) was dissolved in DMSO, Rapamycin 5 mg/mL stock (LC Labs) was dissolved in ethanol.
Under sterile conditions, a 96 well flat bottom plate with white opaque walls (Perkin Elmer) was coated with 10 μg per well of purified human anti-CD3 antibody (clone OKT-3; Biolegend) in a volume of 50 μL per well in sterile PBS. The plate was covered in parafilm and incubated overnight at 4° C. Just prior to addition of Peripheral Blood Mononuclear Cells (PBMCs), the antibody solution was removed and discarded using a multichannel pipette. Wells were washed by adding 200 μL sterile PBS to each well and incubating for 2 min. PBS wash solution was removed and discarded following incubation. The wash step was repeated once, for a total of two PBS washes.
20 mL of blood from a consenting healthy volunteer was collected into lithium heparin vacuette containers (Greiner Bio-One). Under sterile conditions, blood from each container was pooled into a single tube and mixed thoroughly with 20 mL FACS buffer (2% FBS in 1×PBS). 15 mL Ficoll-Paque (GE Healthcare) was added to two 50 mL Falcon tubes, before 20 mL of whole blood/FACS buffer mixture was carefully and slowly dispensed on top of the Ficoll layer. Tubes were centrifuged at 800 g for 20 min at room temperature with the brake off. After centrifugation, the resulting PBMC layer between the plasma and Ficoll layers was carefully removed and transferred to a new 50 mL Falcon tube. Tubes were topped up to 45 mL with FACS buffer, then centrifuged at 500 g for 15 min. Supernatant was carefully removed without disturbing cell pellet, then PBMCs from both tubes were pooled. 30 mL of pre-warmed complete RPMI media [RPMI 1640 (Gibco), 10% heat inactivated FBS (Gibco), 1× Penicillin/Streptomycin/L-Glutamine (Gibco), 100 μM 2-Mercaptoethanol (Sigma)] was added to PBMCs, before centrifugation at 500 g for 15 min at room temperature. Supernatant was removed carefully without disturbing cell pellet. PBMCs were resuspended in 1 mL complete RPMI media.
PBMCs were counted manually using a haemocytometer and cell concentration was adjusted to 1.5×10^6 cells/mL with complete RPMI media. 50 μL of cell suspension was added to appropriate wells of the 96 well flat bottom plate with white opaque walls pre-coated in human anti-CD3. The final number of cells per well was 7.5×10^4.
Cells were incubated in a humidified incubator at 37° C. with 5% CO2 for 1 hour before Compound 1 (or vehicle only) was diluted in complete RPMI medium and added to the appropriate wells at the concentration required. The final volume in all wells was 100 μL. Cells were incubated for 5 days in a humidified incubator at 37° C. with 5% CO2.
CellTiter-Glo Luminescent Cell Viability Assay (Promega) was performed to determine the level of metabolically active cells per well based on ATP quantification. CellTiter-Glo Buffer and lyophilised CellTiter-Glo Substrate were equilibrated to room temperature. CellTiter-Glo Substrate was reconstituted with 10 mL CellTiter-Glo Buffer and gently vortexed for 1 minute to create the CellTiter-Glo Reagent. The 96 well plate containing PBMCs was equilibrated to room temperature for 30 min. Once at room temperature, 100 μL of CellTiter-Glo Reagent was dispensed using a multichannel pipette into each well containing 100 μL cells and media. The plate was mixed for 2 min at room temperature on an orbital shaker to induce cell lysis. The plate was then incubated for 10 min at room temperature in the dark to stabilize the luminescence signal. Luminescence signal was recorded using a CLARIOstar Plus plate reader (BMG Labtech).
PBMCs were stimulated with human anti-CD3 antibody and T cells were allowed to proliferate at 37° C. with 5% CO2 in a humidified incubator for 5 days. Proliferation/viability was assessed via a CellTiter-Glo Luminescent Cell Viability Assay and luminescence was read using a CLARIOstar Plus plate reader. […]
On the technique in general: In ATP-based viability assays light output follows the ATP content of the culture.

A further test relates to actinic keratoses (AKs). The following applies: topical therapy, organ transplant recipients (Heppt et al. 2019); cited from earlier work.

With cyclosporine A [reference compound], the “T cell proliferation compared to the vehicle control” value in the test with human T cells is given as “inhibited”.

Turning to `O=c1[nH]cc(F)c(=O)[nH]1` [5-fluorouracil], in the test on actinic keratoses (AKs), the “complete clearance rate of AKs” value is recorded as 11%. Turning to `CC(C)Cn1cnc2c(N)nc3ccccc3c21` [imiquimod], the “complete clearance rate of AKs” value in the test with actinic keratoses (AKs) was 27.5-62.1%.
